Test results from ChEMBL document CHEMBL1201862, “PubChem BioAssay data set” (2004).
Activity calls are given as the source filed them.

Legend:
[1] = target: E3 ubiquitin-protein ligase XIAP (Homo sapiens, UniProt P98170); assay: Counter Screen using XIAP-Bir3 for Chemical Antagonists of Bir1/2 domains of IAP-family anti-apoptotic proteins. [Related pubchem assays (depositor defined):AID1018, AID1449, AID1514, AID1638, AID1749, AID1750, AID488957, AID488963]
[2] = target: T1, Tyrosine-protein phosphatase non-receptor type 7 (Homo sapiens, UniProt P35236); assay: SAR analysis of chemical inhibitors of HePTP using a Fluorescent assay - Set 2. [Related pubchem assays (depositor defined):AID1059, AID1077, AID1661, AID2085, AID521]; format: functional
T1 sequence (P35236 whole entry): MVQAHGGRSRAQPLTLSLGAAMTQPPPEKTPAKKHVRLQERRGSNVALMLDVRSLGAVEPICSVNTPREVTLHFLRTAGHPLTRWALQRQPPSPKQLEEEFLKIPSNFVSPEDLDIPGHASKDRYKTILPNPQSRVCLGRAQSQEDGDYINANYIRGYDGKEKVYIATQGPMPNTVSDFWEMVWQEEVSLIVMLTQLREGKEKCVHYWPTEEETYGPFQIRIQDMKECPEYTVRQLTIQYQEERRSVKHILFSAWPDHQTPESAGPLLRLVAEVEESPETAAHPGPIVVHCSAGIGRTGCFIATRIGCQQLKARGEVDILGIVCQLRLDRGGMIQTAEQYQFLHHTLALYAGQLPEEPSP

[3] = A cytotoxicity screen of small molecule inhibitors of the PhoP region in Salmonella typhi identified in the primary screen. [Related pubchem assays: 1850, 1864, 1985 ]; format: functional
[4] = viability loss in Vero cells – cytotoxicity control for Vif-APOBEC3G degradation inhibitor project, dose response (AID 1117358); format: functional; conditions: Vero
BJ = assay: BJ-TERT fibroblast viability loss – cell-based, RAS-independent, luminescence, dose response (AID 1933); format: functional; conditions: Homo sapiens
[5] = HIV-1 Vif–A3G interaction blockers – biochemical, TR-FRET, GST-Vif 1-94, biotin-A3G peptide, dose response retest, primary screen (AID 1117319); format: functional;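 also: TR-FRET signal of purified GST-Vif binding a biotinylated A3G peptide; inhibitors lower the FRET signal by blocking Vif and A3G binding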
[6] = bead-based luminescence quenchers, dual-tagged ARNT – biochemical, AlphaScreen, cherry-pick, artefact control for ARNT-TACC3 interaction inhibitor project, dose response (AID 651705); format: functional;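 also: AlphaScreen bead proximity signal that flags compounds interfering with the detection technology; potency reflects signal decrease which marks the compound as an assay artifact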
[7] = target: Cystic fibrosis transmembrane conductance regulator/Golgi-associated PDZ and coiled-coil motif-containing protein (Homo sapiens, UniProt P13569+Q9HD26); assay: potency against CAL PDZ-peptide interaction – biochemical, fluorescence polarization, Cerulean-tagged CAL PDZ, cherry-picks, dose response (AID 504773)
Sequence of Cystic fibrosis transmembrane conductance regulator/Golgi-associated PDZ and coiled-coil motif-containing protein (P13569 whole entry, other chains not shown): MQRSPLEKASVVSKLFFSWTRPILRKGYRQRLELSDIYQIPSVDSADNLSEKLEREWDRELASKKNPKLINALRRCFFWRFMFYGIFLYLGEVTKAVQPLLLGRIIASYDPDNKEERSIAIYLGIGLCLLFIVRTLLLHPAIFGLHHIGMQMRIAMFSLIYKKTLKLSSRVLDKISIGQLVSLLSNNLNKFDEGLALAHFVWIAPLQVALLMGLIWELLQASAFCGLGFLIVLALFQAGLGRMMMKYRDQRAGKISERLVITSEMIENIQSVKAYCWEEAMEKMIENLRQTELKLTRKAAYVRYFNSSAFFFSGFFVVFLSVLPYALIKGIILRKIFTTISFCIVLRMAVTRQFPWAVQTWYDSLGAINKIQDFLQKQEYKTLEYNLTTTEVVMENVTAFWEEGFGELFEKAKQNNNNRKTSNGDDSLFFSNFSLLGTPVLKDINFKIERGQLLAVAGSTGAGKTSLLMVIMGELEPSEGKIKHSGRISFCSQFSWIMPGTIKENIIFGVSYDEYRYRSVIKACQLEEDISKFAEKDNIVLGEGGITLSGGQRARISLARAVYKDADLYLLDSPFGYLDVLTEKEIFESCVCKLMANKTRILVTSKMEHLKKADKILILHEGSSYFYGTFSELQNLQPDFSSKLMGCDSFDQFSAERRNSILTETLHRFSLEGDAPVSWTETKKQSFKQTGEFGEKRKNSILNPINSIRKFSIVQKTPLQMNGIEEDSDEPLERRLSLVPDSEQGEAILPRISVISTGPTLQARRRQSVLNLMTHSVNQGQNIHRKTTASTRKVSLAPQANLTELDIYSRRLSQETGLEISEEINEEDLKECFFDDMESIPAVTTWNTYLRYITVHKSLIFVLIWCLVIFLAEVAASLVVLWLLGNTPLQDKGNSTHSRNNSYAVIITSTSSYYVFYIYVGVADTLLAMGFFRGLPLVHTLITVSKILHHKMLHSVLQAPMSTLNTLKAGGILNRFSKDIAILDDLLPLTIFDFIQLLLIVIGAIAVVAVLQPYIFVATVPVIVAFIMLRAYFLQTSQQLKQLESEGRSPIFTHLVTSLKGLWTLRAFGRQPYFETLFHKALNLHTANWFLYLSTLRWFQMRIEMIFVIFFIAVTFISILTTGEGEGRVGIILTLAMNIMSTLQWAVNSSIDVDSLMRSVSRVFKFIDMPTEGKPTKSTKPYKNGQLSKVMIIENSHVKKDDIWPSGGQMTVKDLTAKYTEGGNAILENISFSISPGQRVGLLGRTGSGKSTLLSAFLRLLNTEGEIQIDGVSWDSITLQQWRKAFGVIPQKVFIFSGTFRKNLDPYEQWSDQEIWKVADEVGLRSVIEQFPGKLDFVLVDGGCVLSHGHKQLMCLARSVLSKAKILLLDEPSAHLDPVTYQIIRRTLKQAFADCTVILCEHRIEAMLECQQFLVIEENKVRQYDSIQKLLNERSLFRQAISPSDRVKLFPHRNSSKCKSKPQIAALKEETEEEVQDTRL

[8] = target: Glucose-6-phosphate 1-dehydrogenase (Homo sapiens, UniProt P11413); assay: inhibition of Homo sapiens G6PD, dose series – biochemical, fluorescence, selectivity assay for P. falciparum G6PD inhibitor project, dose response (AID 504792); format: functional
Sequence of Glucose-6-phosphate 1-dehydrogenase (P11413 whole entry): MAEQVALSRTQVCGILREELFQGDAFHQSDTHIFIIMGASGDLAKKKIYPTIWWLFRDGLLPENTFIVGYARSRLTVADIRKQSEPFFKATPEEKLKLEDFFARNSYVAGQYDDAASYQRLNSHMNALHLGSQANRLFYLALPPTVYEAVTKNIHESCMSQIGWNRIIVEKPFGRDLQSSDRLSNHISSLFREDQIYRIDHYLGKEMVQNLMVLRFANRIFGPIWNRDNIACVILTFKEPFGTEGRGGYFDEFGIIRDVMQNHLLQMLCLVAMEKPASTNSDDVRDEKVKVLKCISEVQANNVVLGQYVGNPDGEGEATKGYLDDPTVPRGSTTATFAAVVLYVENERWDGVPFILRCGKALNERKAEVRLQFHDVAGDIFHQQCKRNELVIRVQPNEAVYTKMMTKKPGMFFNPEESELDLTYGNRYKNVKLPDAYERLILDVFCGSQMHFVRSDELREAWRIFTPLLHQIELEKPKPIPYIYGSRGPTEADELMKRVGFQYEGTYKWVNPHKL

[9] = target: 1-phosphatidylinositol 4,5-bisphosphate phosphodiesterase gamma-1 (Homo sapiens, UniProt P19174); assay: Counterscreen for inhibitors of phospholipase C isozymes (PLC-B3): Fluorescence-based biochemical high throughput dose response assay to identify inhibitors of phospholipase C isozymes (PLC-gamma1).
Sequence of 1-phosphatidylinositol 4,5-bisphosphate phosphodiesterase gamma-1 (P19174 whole entry): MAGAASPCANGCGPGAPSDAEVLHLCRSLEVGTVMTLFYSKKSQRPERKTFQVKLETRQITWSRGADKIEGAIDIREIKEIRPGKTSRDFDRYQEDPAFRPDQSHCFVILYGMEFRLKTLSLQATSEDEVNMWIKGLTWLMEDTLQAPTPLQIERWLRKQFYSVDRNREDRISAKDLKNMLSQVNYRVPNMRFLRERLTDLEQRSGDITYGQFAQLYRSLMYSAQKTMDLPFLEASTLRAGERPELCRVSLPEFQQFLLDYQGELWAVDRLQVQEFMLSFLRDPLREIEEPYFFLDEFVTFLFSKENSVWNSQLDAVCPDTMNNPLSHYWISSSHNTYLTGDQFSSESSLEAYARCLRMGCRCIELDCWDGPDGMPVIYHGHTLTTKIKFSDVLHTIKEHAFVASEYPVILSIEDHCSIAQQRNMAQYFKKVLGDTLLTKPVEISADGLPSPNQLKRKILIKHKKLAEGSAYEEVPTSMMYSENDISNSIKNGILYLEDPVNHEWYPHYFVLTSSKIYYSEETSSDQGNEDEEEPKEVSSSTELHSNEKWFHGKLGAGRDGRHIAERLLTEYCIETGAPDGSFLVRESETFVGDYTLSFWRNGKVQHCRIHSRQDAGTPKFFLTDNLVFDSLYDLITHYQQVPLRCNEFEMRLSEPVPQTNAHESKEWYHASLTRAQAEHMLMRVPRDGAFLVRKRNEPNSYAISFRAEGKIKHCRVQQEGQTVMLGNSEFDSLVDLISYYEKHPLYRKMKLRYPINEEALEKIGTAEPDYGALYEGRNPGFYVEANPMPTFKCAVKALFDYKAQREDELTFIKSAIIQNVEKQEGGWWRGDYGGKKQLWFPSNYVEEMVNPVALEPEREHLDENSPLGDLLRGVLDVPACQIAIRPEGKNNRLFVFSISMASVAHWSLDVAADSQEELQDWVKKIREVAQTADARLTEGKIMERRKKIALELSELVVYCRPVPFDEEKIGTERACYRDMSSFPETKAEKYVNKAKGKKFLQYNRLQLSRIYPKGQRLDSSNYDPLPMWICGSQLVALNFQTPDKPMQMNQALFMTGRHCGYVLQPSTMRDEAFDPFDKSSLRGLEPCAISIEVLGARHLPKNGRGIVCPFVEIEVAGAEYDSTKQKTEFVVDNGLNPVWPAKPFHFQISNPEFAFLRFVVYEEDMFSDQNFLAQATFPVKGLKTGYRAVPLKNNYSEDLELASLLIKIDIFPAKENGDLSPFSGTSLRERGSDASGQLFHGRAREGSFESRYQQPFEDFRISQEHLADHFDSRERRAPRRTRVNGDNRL

[10] = target: Heat shock protein HSP 90-alpha (Homo sapiens, UniProt P07900); assay: Luminescence-based dose response biochemical high throughput screening assay for inhibitors of the Heat Shock Protein 90 (HSP90). [Related pubchem assays: 1831 (Summary AID.), 1846 (Confirmation screen.), 1789 (Primary screen.)]
[11] = decrease of insulin promoter-GFP reporter – imaging, high-content screening, mouse beta cells (AID 1628); format: functional; conditions: MIN6
[12] = target: Dual specificity tyrosine-phosphorylation-regulated kinase 1A (Rattus norvegicus, UniProt Q63470); format: biochemical, Homo sapiens
[13] = target: Intestinal-type alkaline phosphatase (Mus musculus, UniProt P24822); assay: mouse intestinal alkaline phosphatase activators, dose response, biochemical, luminescence, uHTS hits (AID 488783); format: functional
Sequence of Intestinal-type alkaline phosphatase (P24822 whole entry): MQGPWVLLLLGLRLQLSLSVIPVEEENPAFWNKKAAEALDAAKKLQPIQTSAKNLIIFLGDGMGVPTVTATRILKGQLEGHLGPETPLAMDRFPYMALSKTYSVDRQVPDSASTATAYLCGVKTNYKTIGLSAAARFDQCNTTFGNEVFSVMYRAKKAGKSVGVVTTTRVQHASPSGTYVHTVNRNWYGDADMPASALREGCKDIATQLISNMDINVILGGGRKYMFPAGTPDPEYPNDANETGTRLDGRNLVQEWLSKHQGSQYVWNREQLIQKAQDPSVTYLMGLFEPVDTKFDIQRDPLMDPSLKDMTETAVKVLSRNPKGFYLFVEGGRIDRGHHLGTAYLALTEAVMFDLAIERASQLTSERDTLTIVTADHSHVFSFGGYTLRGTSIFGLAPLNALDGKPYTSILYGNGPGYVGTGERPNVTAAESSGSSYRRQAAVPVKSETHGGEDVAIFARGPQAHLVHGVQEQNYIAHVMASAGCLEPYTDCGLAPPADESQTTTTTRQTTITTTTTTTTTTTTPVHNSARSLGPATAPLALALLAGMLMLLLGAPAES

Aminopeptidase N = target: T2, Aminopeptidase N (Plasmodium falciparum FcB1/Columbia, UniProt O96935); assay: malaria alanyl aminopeptidase activity blockers – biochemical, fluorogenic H-Leu-NHMec substrate, 1536-well (AID 1445); parameters: species or system Plasmodium falciparum 3D7, 3D7
T2 sequence (O96935 whole entry): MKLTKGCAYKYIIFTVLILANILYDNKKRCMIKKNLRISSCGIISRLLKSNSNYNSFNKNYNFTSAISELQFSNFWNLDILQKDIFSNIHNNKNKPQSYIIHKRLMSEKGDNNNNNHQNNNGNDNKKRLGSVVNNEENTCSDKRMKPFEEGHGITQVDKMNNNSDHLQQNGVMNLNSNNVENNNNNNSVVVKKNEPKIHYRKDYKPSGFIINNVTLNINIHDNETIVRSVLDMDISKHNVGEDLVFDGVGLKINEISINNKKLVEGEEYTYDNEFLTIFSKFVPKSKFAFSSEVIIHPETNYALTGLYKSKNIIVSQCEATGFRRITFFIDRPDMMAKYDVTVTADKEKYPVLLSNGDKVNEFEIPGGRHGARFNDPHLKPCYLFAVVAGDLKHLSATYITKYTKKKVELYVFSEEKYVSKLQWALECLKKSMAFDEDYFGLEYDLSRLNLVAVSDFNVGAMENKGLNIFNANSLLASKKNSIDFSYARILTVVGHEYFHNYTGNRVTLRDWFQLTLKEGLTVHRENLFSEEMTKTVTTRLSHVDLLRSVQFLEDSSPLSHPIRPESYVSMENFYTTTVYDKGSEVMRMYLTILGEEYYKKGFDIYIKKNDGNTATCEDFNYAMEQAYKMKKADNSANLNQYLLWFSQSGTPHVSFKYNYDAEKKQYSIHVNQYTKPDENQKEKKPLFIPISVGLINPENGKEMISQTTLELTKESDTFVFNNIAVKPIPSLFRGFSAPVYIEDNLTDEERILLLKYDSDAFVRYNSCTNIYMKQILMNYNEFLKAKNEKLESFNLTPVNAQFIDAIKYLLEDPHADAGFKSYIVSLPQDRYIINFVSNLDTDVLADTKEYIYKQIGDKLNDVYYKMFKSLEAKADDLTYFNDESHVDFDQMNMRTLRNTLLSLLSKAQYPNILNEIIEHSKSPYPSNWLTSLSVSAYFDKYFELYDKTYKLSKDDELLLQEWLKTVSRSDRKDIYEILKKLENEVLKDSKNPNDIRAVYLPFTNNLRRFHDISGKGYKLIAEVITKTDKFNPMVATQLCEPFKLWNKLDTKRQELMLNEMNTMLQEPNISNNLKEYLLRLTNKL

Sequence of E3 ubiquitin-protein ligase XIAP (P98170 whole entry): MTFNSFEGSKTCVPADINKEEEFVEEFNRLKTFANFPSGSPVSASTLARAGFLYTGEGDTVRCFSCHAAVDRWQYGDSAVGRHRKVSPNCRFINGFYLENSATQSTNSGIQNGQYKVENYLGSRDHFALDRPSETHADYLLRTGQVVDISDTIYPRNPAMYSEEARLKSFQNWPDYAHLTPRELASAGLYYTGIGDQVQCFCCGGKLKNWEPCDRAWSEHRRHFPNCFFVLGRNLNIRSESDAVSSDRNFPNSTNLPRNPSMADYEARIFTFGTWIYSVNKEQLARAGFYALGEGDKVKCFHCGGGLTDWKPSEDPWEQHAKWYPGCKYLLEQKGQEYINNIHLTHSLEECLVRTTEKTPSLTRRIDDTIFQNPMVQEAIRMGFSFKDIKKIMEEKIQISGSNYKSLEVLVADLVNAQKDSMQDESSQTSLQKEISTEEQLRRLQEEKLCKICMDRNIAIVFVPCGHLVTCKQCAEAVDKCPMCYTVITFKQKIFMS

SMILES: CCc1nnc(NS(=O)(=O)c2ccc(NC(=S)NC(=O)/C=C/c3ccc(C(C)C)cc3)cc2)s1
- IC50 [1]: > 20 µM (inactive)
- IC50 [2]: 5.99 µM (active)
- EC50 [3]: > 50 µM (active)

SMILES: O=C(/C=C/c1ccco1)Nc1ccc(Oc2ccccc2)cc1
- CC50 [4]: > 40 µM (active)
- EC50 (BJ): > 150 µM (not active)
- IC50 [5]: > 100 µM (active)

SMILES: COc1ccc(S(=O)(=O)Nc2cc(SCC(=O)O)c(O)c3ccccc23)cc1
- AC50 [6]: 104 µM (active)
- AC50 [7]: 33.1 µM (active)
- IC50 [8]: 21.1 µM (inactive)

SMILES: O=C1C(Nc2ccc(O)cc2)=C/C(=N/S(=O)(=O)c2cccs2)c2ccccc21
- IC50 [9]: 29.3 µM (inactive)
- IC50 [10]: 0.656 µM (active)
- IC50 [11]: 0.975 µM (active)
- AC50 [12]: 0.883 µM (active)

SMILES: CC1CC(=O)c2c(cc3c(-c4c(O)cc(O)c5c(O)c6c(cc45)OC(C)CC6=O)c(O)cc(O)c3c2O)O1 (stereo not given) [CEPHALOCHROMIN]
- EC50 [13]: 19.1 µM (active)
- IC50 (Aminopeptidase N): 64.9 µM (active)
